Measured values from patent publication US20240342127A1, “METHODS OF TREATING COPPER METABOLISM-ASSOCIATED DISEASES OR DISORDERS” (Alexion Pharmaceuticals, Inc., priority 2021, published 2024).

Columns and labels:
participants with WD = test system: participants with WD
Experimental: Incremental dose increases are permitted, but not required, up to a maximum of 60 mg/day.
In summary, the maximum daily dose permitted in this study (Study 302) has been set as […].

[1] = in vivo
patients with WD = conditions: cited from earlier work
[2] = compared with other treatments; cited from earlier work

Bis-choline tetrathiomolybdate [BC-TTM]
copper mobilization from tissue to blood compared with SoC, as measured by daily mean dNCC AUEC0-48 weeks (participants with WD; 48-week Primary Evaluation Period, overall mean daily dose 15.6 mg): approximately 3 fold | participants with Grade 2 ALT elevations during treatment (participants with WD; in vivo): approximately 15% | effect of age, sex or body weight on PK [1]: not significant covariates | reduction of mean serum non-ceruloplasmin-bound Cu (NCC) compared with baseline (patients with WD; Week 24, 28 patients with WD, monotherapy): 72% | most frequently reported drug-related AEs (patients with WD; human, in vivo): changes in hematological parameters, fatigue, sulphur eructations, and other gastrointestinal symptoms | paradoxical neurological worsening upon treatment initiation (patients with WD; human, in vivo): No paradoxical neurological worsening was observed | patients with reversible liver function test elevations (patients with WD; human, in vivo): 39% | severity of most reported adverse events (patients with WD; human, in vivo): mild (Grade 1) to moderate (Grade 2) | tolerability of treatment (patients with WD; human, in vivo): generally well-tolerated | binding affinity to copper [2]: greater binding affinity to copper compared with other treatments
